For experiment [1], the system named is Escherichia coli. Kind of experiment: Inhibition of N-terminal His6-tagged Escherichia coli PanK1 expressed in Escherichia coli BL21(DE3) cells at >= 100 uM using pantothenate as substrate in presence of ATP by pyruvate kinase/lactate dehydrogenase enzyme coupled assay.
The target of experiment [2] is T1, Type III pantothenate kinase (Pseudomonas aeruginosa (strain ATCC 15692 / DSM 22644 / CIP 104116 /JCM 14847 / LMG 12228 / 1C / PRS 101 / PAO1)) (UniProt Q9HWC1).
T1 sequence (whole entry): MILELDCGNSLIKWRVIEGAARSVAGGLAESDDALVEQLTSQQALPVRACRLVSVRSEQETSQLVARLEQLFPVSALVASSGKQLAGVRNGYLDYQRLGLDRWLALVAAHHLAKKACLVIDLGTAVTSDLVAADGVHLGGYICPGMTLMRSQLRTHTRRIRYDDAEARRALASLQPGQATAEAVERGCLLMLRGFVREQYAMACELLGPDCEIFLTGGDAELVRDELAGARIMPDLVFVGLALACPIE
Briefly: Inhibition of Pseudomonas aeruginosa PanK3 expressed in Escherichia coli BL21 Rosetta(DE3) cells at >= 100 uM using pantothenate as substrate in presence of ATP by pyruvate kinase/lactate dehydrogenase enzyme coupled assay.

For experiment [3], the target named is T2, Type II pantothenate kinase (Staphylococcus aureus (strain MSSA476)) (UniProt Q6G7I0).
T2 sequence (whole entry): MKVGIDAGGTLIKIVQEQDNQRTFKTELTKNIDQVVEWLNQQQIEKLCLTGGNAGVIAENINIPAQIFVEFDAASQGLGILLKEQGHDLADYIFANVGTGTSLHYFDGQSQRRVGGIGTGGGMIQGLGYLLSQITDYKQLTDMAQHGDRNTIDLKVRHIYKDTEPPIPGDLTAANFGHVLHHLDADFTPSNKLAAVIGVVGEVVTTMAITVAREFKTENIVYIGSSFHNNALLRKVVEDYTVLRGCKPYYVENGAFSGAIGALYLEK
Kind of experiment: Inhibition of N-terminal His6-tagged Staphylococcus aureus PanK2 expressed in Escherichia coli BL21(DE3) cells at >= 100 uM using pantothenate as substrate in presence of ATP by pyruvate kinase/lactate dehydrogenase enzyme coupled assay.

Experiment [4] has as its system Escherichia coli. Briefly: Growth inhibition of Escherichia coli ATCC 25922 after 16 hrs by broth microdilution method. The format is functional, organism-based.
Another experiment has as its system Enterococcus faecium. Kind of experiment: Growth inhibition of Enterococcus faecium ATCC 19434 after 16 hrs by broth microdilution method. The experiment is classed as functional, organism-based.
In another experiment the test system is Pseudomonas aeruginosa. Kind of experiment: Growth inhibition of Pseudomonas aeruginosa ATCC 27853 after 16 hrs by broth microdilution method. The format is functional, organism-based.
In experiment [5] the test system is Escherichia coli. Briefly: Substrate activity at N-terminal His6-tagged Escherichia coli PanK1 expressed in Escherichia coli BL21(DE3) cells in presence of ATP/NADH by pyruvate kinase/lactate dehydrogenase enzyme coupled assay.
The target in experiment [6] is T1, Type III pantothenate kinase (Pseudomonas aeruginosa (strain ATCC 15692 / DSM 22644 / CIP 104116 /JCM 14847 / LMG 12228 / 1C / PRS 101 / PAO1)). Briefly: Substrate activity at Pseudomonas aeruginosa PanK3 expressed in Escherichia coli BL21(DE3) cells in presence of ATP/NADH by pyruvate kinase/lactate dehydrogenase enzyme coupled assay.
Experiment [7] has as its target T2, Type II pantothenate kinase (Staphylococcus aureus (strain MSSA476)). Kind of experiment: Substrate activity at N-terminal His6-tagged Staphylococcus aureus PanK2 expressed in Escherichia coli BL21(DE3) cells in presence of ATP/NADH by pyruvate kinase/lactate dehydrogenase enzyme coupled assay.
Experiment [8] shares this target. Briefly: Substrate activity at N-terminal His6-tagged Staphylococcus aureus PanK2 expressed in Escherichia coli BL21(DE3) cells assessed as ratio of Kcat to Km in presence of ATP/NADH by pyruvate kinase/lactate dehydrogenase enzyme coupled assay.
The target of experiment [9] is T1, Type III pantothenate kinase (Pseudomonas aeruginosa (strain ATCC 15692 / DSM 22644 / CIP 104116 /JCM 14847 / LMG 12228 / 1C / PRS 101 / PAO1)). Briefly: Substrate activity at Pseudomonas aeruginosa PanK3 expressed in Escherichia coli BL21(DE3) cells assessed as ratio of Kcat to Km in presence of ATP/NADH by pyruvate kinase/lactate dehydrogenase enzyme coupled assay.

Experiment [10] deals with T2, Type II pantothenate kinase (Staphylococcus aureus (strain MSSA476)). Kind of experiment: Inhibition of N-terminal His6-tagged Staphylococcus aureus PanK2 expressed in Escherichia coli BL21(DE3) cells at 200 uM using pantothenate as substrate in presence of ATP by pyruvate kinase/lactate dehydrogenase enzyme coupled assay.
Experiment [11] relates to Escherichia coli. Kind of experiment: Substrate activity at N-terminal His6-tagged Escherichia coli PanK1 expressed in Escherichia coli BL21(DE3) cells assessed as Km in presence of ATP/NADH by pyruvate kinase/lactate dehydrogenase enzyme coupled assay.
The test system of experiment [12] is Escherichia coli. Briefly: Substrate activity at N-terminal His6-tagged Escherichia coli PanK1 expressed in Escherichia coli BL21(DE3) cells assessed as Kcat in presence of ATP/NADH by pyruvate kinase/lactate dehydrogenase enzyme coupled assay.
Experiment [13] deals with Escherichia coli. Briefly: Substrate activity at N-terminal His6-tagged Escherichia coli PanK1 expressed in Escherichia coli BL21(DE3) cells assessed as ratio of Kcat to Km in presence of ATP/NADH by pyruvate kinase/lactate dehydrogenase enzyme coupled assay.
For experiment [14], the system named is Escherichia coli. Briefly: Inhibition of N-terminal His6-tagged Escherichia coli PanK1 expressed in Escherichia coli BL21(DE3) cells at 200 uM using pantothenate as substrate in presence of ATP by pyruvate kinase/lactate dehydrogenase enzyme coupled assay.
For experiment [15], the target named is T1, Type III pantothenate kinase (Pseudomonas aeruginosa (strain ATCC 15692 / DSM 22644 / CIP 104116 /JCM 14847 / LMG 12228 / 1C / PRS 101 / PAO1)). Briefly: Inhibition of Pseudomonas aeruginosa PanK3 expressed in Escherichia coli BL21 Rosetta(DE3) cells at 200 uM using pantothenate as substrate in presence of ATP by pyruvate kinase/lactate dehydrogenase enzyme coupled assay.

Results on five compounds are retold here after ChEMBL document CHEMBL4261651, “Probing the ligand preferences of the three types of bacterial pantothenate kinase” (Bioorg Med Chem, 2018).

Activity calls are given as the source filed them. No cut-off for these calls is given here.

For `CC(C)(CNCCCO)[C@@H](O)C(=O)NCCC(=O)O`, the inhibition result (in the experiment on Escherichia coli [1]; in [2]; in [3]) was “inactive” in each case. Moreover, the “growth inhibition (GI)” value with Escherichia coli [4], in the experiment on Enterococcus faecium and with Pseudomonas aeruginosa was “inactive” each time. The outcome (in the experiment with Escherichia coli [5]; in experiment [6]; in [7]) was inactive.

Take `CC(C)(CO)[C@@H](O)C(=O)NCCCC(=O)O`: the inhibition result (in the experiment with Escherichia coli [1]; in experiment [2]; in experiment [3]) was “inactive” in each case. Also, the Ratio in [8] was determined as 57 mM⁻¹ s⁻¹; in experiment [9], 1.4 mM⁻¹ s⁻¹. The “growth inhibition (GI)” value in the experiment with Escherichia coli [4], in the experiment on Enterococcus faecium and in the experiment on Pseudomonas aeruginosa was “inactive” each time.

`CC(C)(C(=O)O)[C@@H](O)C(=O)NCCC(=O)O`: the inhibition entry in experiment [10] is “Active”. Moreover, the “growth inhibition (GI)” value in the experiment with Escherichia coli [4], in the experiment on Enterococcus faecium and in the experiment on Pseudomonas aeruginosa was “inactive” throughout.

Consider `CC(C)(CO)[C@@H](O)C(=O)NCCC(=O)O`, for which, in the experiment on Escherichia coli [11], the Km came to 17 µM. The kcat with Escherichia coli [12] was found to be 1.29 s⁻¹. Further, the values for the Ratio (in the experiment on Escherichia coli [13]; in experiment [8]; in [9]) were 76 mM⁻¹ s⁻¹, 115 mM⁻¹ s⁻¹ and 20 mM⁻¹ s⁻¹, respectively.

`CC(=O)CC(=O)NCC(C)(C)[C@@H](O)C(=O)NCCC(=O)O`: the inhibition result (with Escherichia coli [14]; in [15]; in experiment [10]) was “Active” each time. Further, the “growth inhibition (GI)” value with Escherichia coli [4], in the experiment with Enterococcus faecium and in the experiment with Pseudomonas aeruginosa was “inactive” throughout.
